Source: ChEMBL document CHEMBL1146279 (Bioorg Med Chem Lett, 2007)

These compounds were tested against T1, Tyrosine-protein kinase JAK3 (Homo sapiens, UniProt P52333) (assay: Inhibition of JAK3 expressed in Sf21 cells).
T1 sequence (P52333 whole entry): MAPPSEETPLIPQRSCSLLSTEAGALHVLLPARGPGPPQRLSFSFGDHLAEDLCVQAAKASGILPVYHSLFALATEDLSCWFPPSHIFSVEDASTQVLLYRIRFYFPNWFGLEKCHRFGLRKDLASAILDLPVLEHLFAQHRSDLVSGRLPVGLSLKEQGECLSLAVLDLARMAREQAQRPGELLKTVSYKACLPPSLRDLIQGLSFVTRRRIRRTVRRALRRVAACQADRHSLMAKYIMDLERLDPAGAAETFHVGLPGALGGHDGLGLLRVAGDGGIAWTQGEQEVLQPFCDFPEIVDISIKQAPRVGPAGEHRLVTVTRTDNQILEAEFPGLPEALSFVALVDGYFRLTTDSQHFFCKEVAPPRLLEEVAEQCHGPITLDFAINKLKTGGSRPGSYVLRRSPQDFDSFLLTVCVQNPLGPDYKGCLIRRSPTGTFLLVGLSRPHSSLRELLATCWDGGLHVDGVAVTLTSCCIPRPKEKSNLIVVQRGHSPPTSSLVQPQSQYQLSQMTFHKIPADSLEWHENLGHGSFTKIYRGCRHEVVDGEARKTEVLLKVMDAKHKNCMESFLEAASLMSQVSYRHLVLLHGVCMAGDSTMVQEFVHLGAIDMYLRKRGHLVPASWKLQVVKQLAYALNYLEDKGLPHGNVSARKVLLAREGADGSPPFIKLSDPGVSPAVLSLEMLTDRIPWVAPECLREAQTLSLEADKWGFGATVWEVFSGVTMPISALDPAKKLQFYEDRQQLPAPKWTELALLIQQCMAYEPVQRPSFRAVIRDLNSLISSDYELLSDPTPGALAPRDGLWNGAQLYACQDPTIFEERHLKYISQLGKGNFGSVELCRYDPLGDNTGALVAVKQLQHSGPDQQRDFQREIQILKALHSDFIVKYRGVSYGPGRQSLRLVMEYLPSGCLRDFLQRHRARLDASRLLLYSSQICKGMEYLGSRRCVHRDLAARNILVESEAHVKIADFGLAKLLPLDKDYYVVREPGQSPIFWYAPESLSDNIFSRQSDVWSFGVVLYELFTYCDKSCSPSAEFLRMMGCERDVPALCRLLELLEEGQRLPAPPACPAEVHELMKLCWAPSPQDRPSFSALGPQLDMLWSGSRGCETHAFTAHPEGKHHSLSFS

Row | Structure (SMILES) | IC50 [nM]
1 | CN(C)CCCNC(=O)/C=C/c1ccc2c(c1)c1c3c(c4c5ccccc5n5c4c1n2CC(CO)C5)CNC3=O (stereo not given) | 237
2 | O=C1NCc2c1c1c3ccccc3n3c1c1c2c2ccccc2n1CC(O)C3 (stereo not given) | 142
3 | O=C1NCc2c1c1c3ccccc3n3c1c1c2c2ccccc2n1CC(=C(CO)CO)C3 | 36
4 | CN(C)Cc1ccc2c(c1)c1c3c(c4c5ccccc5n5c4c1n2CC(CO)C5)C(=O)NC3 (stereo not given) | 250
5 | O=C1NCc2c1c1c3cc(/C=C/c4ccccn4)ccc3n3c1c1c2c2ccccc2n1CC(CO)C3 (stereo not given) | 354
6 | O=C1NCc2c1c1c3cc(/C=C/n4ccnc4)ccc3n3c1c1c2c2ccccc2n1CC(CO)C3 (stereo not given) | 109
7 | O=C1NCc2c1c1c3cc(CN4CCOCC4)ccc3n3c1c1c2c2cc(CN4CCOCC4)ccc2n1CC(CO)C3 (stereo not given) | > 5000
8 | CC(C)OCc1ccc2c(c1)c1c3c(c4c5ccccc5n5c4c1n2CC(CO)C5)C(=O)NC3 (stereo not given) | 80

Stronger by IC50, values ahead:

Row | IC50 [nM] | Structure (SMILES)
9 | 15 | O=Cc1ccc2c(c1)c1c3c(c4c5cc(Br)ccc5n5c4c1n2CC(CO)C5)C(=O)NC3 (stereo not given)
10 | 14 | O=C1NCc2c1c1c3cc(CO)ccc3n3c1c1c2c2cc(CO)ccc2n1CC(CO)C3 (stereo not given)
11 | 13.5 | O=C1NCc2c1c1c3ccccc3n3c1c1c2c2ccccc2n1CC(CO)(CO)C3
12 | 27 | O=C1NCc2c1c1c3ccccc3n3c1c1c2c2ccccc2n1CC(O)(CO)C3 (stereo not given)
13 | 11 | O=C1NCc2c1c1c3cc(/C=C/Cn4ccnc4)ccc3n3c1c1c2c2ccccc2n1CC(CO)C3 (stereo not given)
14 | 17.5 | O=C1NCc2c1c1c3ccccc3n3c1c1c2c2ccccc2n1CC(CO)C3 (stereo not given)
15 | 23.5 | O=C1NCc2c1c1c3cc(Br)ccc3n3c1c1c2c2ccccc2n1CC(CO)C3 (stereo not given)
